According to PMC8619434 (Viruses, 2021):
Structures can show the parent of a compound that is named as a salt. *1 amine or outer side, *2 acyl side, *3 side chain or, on linkers, in order; H or OH if unused. Where a SMILES comes first, the peptide text is derived from it. Bridges are numbered along the chain shown (N, C = ends). [ ]: non-standard residue; d: D form. The star is where a group is joined. pTerphenylCO(4''-OnC5H11) = CCCCCOc1ccc(-c2ccc(-c3ccc(C(=O)*)cc3)cc2)cc1; Orn(4R-OH,5R-OH) = O=C([C@H](C[C@@H](O)[C@@H](O)N[*:3])N[*:1])[*:2]; hTyr(3S-OH,4S-OH) = N[C@H](C(=O)O)[C@H](O)[C@@H](O)c1ccc(O)cc1; Pro(3S-OH,4S-Me) = C[C@H]1CN[C@H](C(=O)O)[C@H]1O; Hyp = O=C(O)[C@@H]1C[C@@H](O)CN1

What was measured:
in vitro = conditions: human
[1] = system: SARS-CoV-2 spike protein pseudovirus; assay: microbe, parasite or virus in culture; assay type: cell-based; conditions: for activity at 10 µM: 293T/ACE2, 48 h, read-out: % Infectivity of SARS-2-Spike pv
VSV-G pseudovirus = assay: microbe, parasite or virus in culture; assay type: cell-based, vesicular stomatitis virus; conditions: for activity at 10 µM: Pseudovirus, 293T/ACE2, read-out: % Infectivity of VSV-G pv

Compound	viability at 10 µM (in vitro) [%]	activity at 10 µM [1] [%]	activity at 10 µM (VSV-G pseudovirus) [%]	also measured
COc1c2ccoc2cc2oc(=O)ccc12 [5-methoxypsoralen]	111			
COc1c2occc2cc2ccc(=O)oc12 [8-methoxypsoralen]	105			
CN1CCC(=C2c3ccccc3CCn3c(C=O)cnc32)CC1 [Alcaftadine]	97			
O=C1c2c(O)cccc2C([C@@H]2O[C@H](CO)[C@@H](O)[C@H](O)[C@H]2O)c2cc(CO)cc(O)c21 (some centres unmarked) [Aloin]	103			
CCOC(=O)c1c(CSc2ccccc2)n(C)c2cc(Br)c(O)c(CN(C)C)c12 [Arbidol]		18	62	
CNC(=O)c1ccccc1Sc1ccc2c(/C=C/c3ccccn3)n[nH]c2c1 [Axitinib (AG 013736), Axitinib]		1	2	viability (in vitro; % Viability of SARS-2-Spike pv): 69%
NC(=O)N1c2ccccc2C=Cc2ccccc21 [Carbamazepine]	105			
CC(C(=O)O)c1ccc2c(c1)[nH]c1ccc(Cl)cc12 (centres unmarked) [Carprofen]	103			
COc1ccccc1OCCNCC(O)COc1cccc2[nH]c3ccccc3c12 (centres unmarked) [Carvedilol]	81			
CC(C)/N=c1\cc2n(-c3ccc(Cl)cc3)c3ccccc3nc-2cc1Nc1ccc(Cl)cc1 [Clofazimine]	77			
CN1CCN(C2=Nc3cc(Cl)ccc3Nc3ccccc32)CC1 [Clozapine]	103			
C=C1CC[C@H]2C(=C)CC[C@H]3C(=C)C(=O)O[C@@H]3[C@@H]12 [Dehydrocostus Lactone]	90			
CC(=O)Oc1cccc2c1C(=O)c1c(OC(C)=O)cc(C(=O)O)cc1C2=O [Diacerein]	126			
c1ccc2c(c1)sc1ccccc12 [Dibenzothiophene]	102			
C[C@]12CCC(=O)C=C1[C@@H]1C[C@@H]1[C@H]1[C@@H]3[C@@H]4C[C@@H]4[C@@]4(CCC(=O)O4)[C@@]3(C)CC[C@@H]12 [Drospirenone]			381	
NC1=NCC2c3ccccc3Cc3ccccc3N12 (centres unmarked) [Epinastine HCl]				viability at 10 µM (in vitro; % viability (Table S3)): 94%
CC(=O)O[C@H]1Cc2ccccc2N(C(N)=O)c2ccccc21 [Eslicarbazepine acetate]	102			
CCc1cccc2c3c([nH]c12)C(CC)(CC(=O)O)OCC3 (centres unmarked) [Etodolac]	100			
COc1cc2c(Oc3ccc(NC(=O)C4(C(=O)Nc5ccc(F)cc5)CC4)cc3F)ccnc2cc1OCCCN1CCOCC1 [Foretinib (GSK1363089), Foretinib]		10	11	viability (in vitro; % Viability of SARS-2-Spike pv): 63%
c1cn2cc(-c3ccc4cn[nH]c4c3)nc(Nc3ccc(N4CCOCC4)cc3)c2n1 [GS-9973]		0	1	viability (in vitro): 69%
CN1CCC(=C2c3ccccc3CC(=O)c3sccc32)CC1 [Ketotifen Fumarate]	97			

Compound	viability at 10 µM (in vitro) [%]	activity at 10 µM [1] [%]	activity at 10 µM (VSV-G pseudovirus) [%]	also measured
Cc1cc(Nc2cc(CN3CCOCC3)c3nc(C)c(Cc4ccc(Cl)cc4F)n3n2)n[nH]1 [LY2784544]		2	1	viability (in vitro; % Viability of SARS-2-Spike pv): 76%
CN1CCN(C2=Nc3ccccc3Oc3ccc(Cl)cc32)CC1 [Loxapine Succinate]	94			
COc1cc(Nc2ncc3c(n2)-c2ccc(Cl)cc2C(c2c(F)cccc2OC)=NC3)ccc1C(=O)O [MLN8237 (Alisertib), Alisertib]	63	15 to 18	18	viability (in vitro; % Viability of SARS-2-Spike pv): 63 to 83%
CN1CCCCC1CCN1c2ccccc2Sc2ccc([S+](C)[O-])cc21 (centres unmarked) [Mesoridazine besylate]				viability at 10 µM (in vitro; % viability (Table S3)): 97%
CN1CCN2c3ncccc3Cc3ccccc3C2C1 (centres unmarked) [Mirtazapine]	104			
Cc1ccnc2c1NC(=O)c1cccnc1N2C1CC1 [Nevirapine]	103			
Cc1cc2c(s1)Nc1ccccc1N=C2N1CCN(C)CC1 [Olanzapine]	106			
CN(C)CC/C=C1/c2ccccc2COc2ccc(CC(=O)O)cc21 [Olopatadine HCl]	99			
NC(=O)N1c2ccccc2CC(=O)c2ccccc21 [Oxcarbazepine]	109			
CC(C(=O)O)c1ccc2c(c1)Cc1cccnc1O2 (centres unmarked) [Pranoprofen]	114			
OCCOCCN1CCN(C2=Nc3ccccc3Sc3ccccc32)CC1 [Quetiapine Fumarate]				viability at 10 µM (in vitro; % viability (Table S3)): 96%
CCC(=O)NCC[C@@H]1CCc2ccc3c(c21)CCO3 [Ramelteon]	99			
Nc1c2c(nc3ccccc13)CCCC2 [Tacrine hydrochloride]				viability at 10 µM (in vitro; % viability (Table S3)): 97%
CC1CCC2(OC1)OC1CC3C4CCC5CC(OC6OC(CO)C(O)C(O)C6OC6OC(CO)C(O)C(O)C6O)CCC5(C)C4CCC3(C)C1C2C (centres unmarked) [Timosaponin A3]		5	85	viability (in vitro; % Viability of SARS-2-Spike pv): 55%
CC(=O)OCC[N+](C)(C)C [acetylcholine]				% Infectivity of SARS-2-Spike pv [1]: did not enhance infectivity
Clc1ccc2c(c1)C(N1CCNCC1)=Nc1ccccc1O2 [amoxapine]		20	95	viability (in vitro; % Viability of SARS-2-Spike pv): 103%
CCCCCOc1ccc(-c2ccc(-c3ccc(C(=O)N[C@H]4C[C@@H](O)[C@@H](O)NC(=O)[C@@H]5[C@@H](O)[C@@H](C)CN5C(=O)[C@H]([C@@H](C)O)NC(=O)[C@H]([C@H](O)[C@@H](O)c5ccc(O)cc5)NC(=O)[C@@H]5C[C@@H](O)CN5C(=O)[C@H]([C@@H](C)O)NC4=O)cc3)cc2)cc1 [anidulafungin] ({pTerphenylCO(4''-OnC5H11)}-[Orn(4R-OH,5R-OH)]T[Hyp][hTyr(3S-OH,4S-OH)]T[Pro(3S-OH,4S-Me)]; lactam 1-C)		19	125	viability (in vitro; % Viability of SARS-2-Spike pv): 109%
CN1CCCC(n2nc(Cc3ccc(Cl)cc3)c3ccccc3c2=O)CC1 (centres unmarked) [azelastine HCl]		4	81	IC50 ([1]; 293T/ACE2, read-out: IC50 of SARS-CoV-2-S pseudovirus infectivity): 4.84 µM; viability (in vitro; % Viability of SARS-2-Spike pv): 98%
CC[C@H]1OC(=O)[C@H](C)[C@@H](O[C@H]2C[C@@](C)(OC)[C@@H](O)[C@H](C)O2)[C@H](C)[C@@H](O[C@@H]2O[C@H](C)C[C@H](N(C)C)[C@H]2O)[C@](C)(O)C[C@@H](C)CN(C)[C@H](C)[C@@H](O)[C@]1(C)O [azithromycin dihydrate]		4	100	viability (in vitro; % Viability of SARS-2-Spike pv): 94%
CN1[C@@H]2CC[C@H]1C[C@@H](OC(c1ccccc1)c1ccccc1)C2 [benztropine mesylate]		10	93	viability (in vitro; % Viability of SARS-2-Spike pv): 96%
COc1cc2c(Oc3ccc4[nH]c(C)cc4c3F)ncnc2cc1OCCCN1CCCC1 [cediranib (AZD217), cediranib]		5	42	viability (in vitro; % Viability of SARS-2-Spike pv): 85%

Compound	viability at 10 µM (in vitro) [%]	activity at 10 µM [1] [%]	activity at 10 µM (VSV-G pseudovirus) [%]	also measured
COc1ccc2cc1Oc1ccc(cc1)C[C@H]1c3c(cc4c(c3Oc3cc5c(cc3OC)CCN(C)[C@@H]5C2)OCO4)CCN1C [cepharanthine]		1	1	
CN(C)CCCN1c2ccccc2CCc2ccc(Cl)cc21 [clomipramine HCl]		9	78	viability (in vitro; % Viability of SARS-2-Spike pv): 115%
CN(C)CCC=C1c2ccccc2C=Cc2ccccc21 [cyclobenzaprine HCl]		9	81	viability (in vitro; % Viability of SARS-2-Spike pv): 101%
CN1CCC(=C2c3ccccc3C=Cc3ccccc32)CC1 [cyproheptadine HCl]		17	92	viability (in vitro; % Viability of SARS-2-Spike pv): 94%
Clc1ccc2c(c1)CCc1cccnc1C2=C1CCNCC1 [desloratadine]			82	viability (in vitro; % Viability of SARS-2-Spike pv): 99%
CCc1cnn2c(NCc3ccc[n+]([O-])c3)cc(N3CCCC[C@H]3CCO)nc12 [dinaciclib]		0	1	viability (in vitro; % Viability of SARS-2-Spike pv): 55%
CN1CCC(OC(c2ccccc2)c2ccccc2)CC1 [diphenylpyraline HCl]		15	108	viability (in vitro; % Viability of SARS-2-Spike pv): 106%
COc1cc2c(cc1OC)CN(CCc1ccc(NC(=O)c3cccc4c(=O)c5cccc(OC)c5[nH]c34)cc1)CC2 [elacridar]	97			
C[C@]12CC[C@@H]3c4ccc(O)cc4CC[C@H]3[C@@H]1CC[C@@H]2O [estradiol]				% Infectivity of SARS-2-Spike pv [1]: did not enhance infectivity
C[C@]12CC[C@@H]3c4ccc(O)cc4CC[C@H]3[C@@H]1C[C@@H](O)[C@@H]2O [estriol]				% Infectivity of SARS-2-Spike pv [1]: did not enhance infectivity
CCOC(=O)c1ncn2c1CN(C)C(=O)c1cc(F)ccc1-2 [flumazenil]	104			
NCCc1c[nH]cn1 [histamine]				% Infectivity of SARS-2-Spike pv [1]: did not enhance infectivity
NC(=O)N1CCC(CC(=O)N2CCC([C@H]3c4ncc(Br)cc4CCc4cc(Cl)cc(Br)c43)CC2)CC1 [lonafarnib]	111			
CN1CCN2c3ccccc3Cc3ccccc3C2C1 (centres unmarked) [mianserin Hcl]	100			
C=C1C(=O)[C@]23[C@H](O)[C@H]1CC[C@H]2[C@@]12CO[C@]3(O)[C@@H](O)[C@@H]1C(C)(C)CC[C@@H]2O [oridonin]		9	37	
CC(=O)c1c(C)c2cnc(Nc3ccc(N4CCNCC4)cn3)nc2n(C2CCCC2)c1=O.Cl [palbociclib HCl]				% Infectivity of VSV-G pv (VSV-G pseudovirus): 63%
CC(=O)c1c(C)c2cnc(Nc3ccc(N4CCNCC4)cn3)nc2n(C2CCCC2)c1=O [palbociclib isethionate]			32	
CC(=O)[C@H]1CC[C@H]2[C@@H]3CCC4=CC(=O)CC[C@]4(C)[C@H]3CC[C@]12C [progesterone]				% Infectivity of SARS-2-Spike pv [1]: did not enhance infectivity
NCCc1c[nH]c2ccc(O)cc12 [serotonin]				% Infectivity of SARS-2-Spike pv [1]: did not enhance infectivity
COc1ccc2cc1Oc1ccc(cc1)C[C@H]1c3cc(c(OC)cc3CCN1C)Oc1c(OC)c(OC)cc3c1[C@H](C2)N(C)CC3 [tetrandrine]		1	39	
Cc1cn([C@H]2C[C@H](N=[N+]=[N-])[C@@H](CO)O2)c(=O)[nH]c1=O [zidovudine]				% Infectivity of VSV-G pv (VSV-G pseudovirus): potently inhibited
